# Data taken from patent publication US6436987B1, “Crystalline forms of (3S-trans)-2-[3,4-dihydro-4-hydroxy-3-(phenylmethyl)-2H-1-benzopyran-7-yl]-4-(trifluoromethyl)-benzoic acid” (Pfizer Inc., priority 2000, dated 2002).
# Where a name gives a salt, the structure may show the parent alone.
# Key:
# Format in all cases: physicochemical
# [1] = solid-state storage stability in sealed dark glass bottle under nitrogen; settings: sealed dark colored glass bottle, under nitrogen gas
# From the text: However, polymorph B may be stably stored in solid form. If placed in a sealed dark colored glass bottle, under nitrogen gas, polymorph B crystals are stable for at least 6 weeks.
# (§1) Examples of suitable solvent include ethyl acetate: hexanes 1:5.
# [2] = conversion (bridging) to polymorph A in solvent
# Experimental: Polymorph B crystals may also be converted back to polymorph A crystals by placement in a solvent in which the B form is very slightly soluble, such as n-hexanes. Over a period of time (for example, no more than 18 hours) crystals of polymorph A will develop. Prolonged granulation (for example 18 hours) even when conducted at 5° C. will also effect conversion to polymorph A.
# as §1
# [3] = comparison of forms: solubility in aqueous solvents; settings: polymorph B versus polymorph A; salt versus all other known forms
# [4] = equilibration of forms under ambient conditions (relative energy)
# From the text: As evaluated by equilibration of the polymorphs (A and B) under ambient conditions, polyporph A is the lower energy form.
# [5] = equilibrium solubility determined during polymorph screen; settings: thermodynamic from solid; pH 7 water, four days at ambient temperature
# Experimental: Using the microscopy methods described by Haleblaine and McCrone, Journal of Pharmaceutical Sciences, 58(8), pp. 911-929, 1969, a polymorph screen was conducted for the ethylene diamine (mono) salt of compound (I). No polymorphs were observed. A more extensive polymorph screen was run on the (mono) salt of compound (I′), involving 31 isolations, and again no polymorphs were observed. During the polymorph screen, an equilibrium solubility for the ethylene diamine (mono) salt of compound (I) was determined. After maintaining a sample for four days at ambient temperature, an equilibrium solubility value of approximately 4 mg/ml was determined, in pH 7 water. Additionally, the ethylene diamine (bis) salt was not observed in these studies.
# [6] = salt screen for suitable crystalline properties; settings: salt of compound (I′)
# Experimental: Again using compound (I′), the following salt species were prepared and screened for the presence of suitable crystalline properties. […] The olamine salt was recovered as an oil. The meglumine salt material was determined to be amorphous. Both the benzathine (mono) and benzathine (bis) salts were also determined to be amorphous. Crystalline solids could also not be prepared for the L-arginine, L-lysine, calcium, potassium, and magnesium salts.
# [7] = hygroscopicity: weight gain at 87% RH; settings: for weight gain (hygroscopicity): after 72 hours at 87% RH
# Experimental: Polymorph A has an X-ray powder diffraction pattern that is unique to the form as previously described (FIG. 1). Upon microscopic examination, crystals appear as small needles and aggregates thereof, but which are not reliably distinguished from those of polymorph B (FIG. 2). By fusion microscopy, polymorph A is determined to commence melting at about 144° C., with no recrystallization noted upon further temperature increases. […] (FIG. 5).
# [8] = comparison of forms: thermal stability
smiles,measurement,setting,value
"O=C(O)c1ccc(C(F)(F)F)cc1-c1ccc2c(c1)OC[C@H](Cc1ccccc1)[C@H]2O [polymorph B, (3S-trans)-2-[3,4-dihydro-4-hydroxy-3-(phenylmethyl)-2H-1-benzopyran-7-yl]-4-(trifluoromethyl)-benzoic acid]",time stable in solid form,[1],at least 6 weeks
same,time for conversion to polymorph A,"[2]; in a solvent in which the B form is very slightly soluble, such as n-hexanes",no more than 18 hours
same,solubility in aqueous solvents relative to other forms,[3],greater solubility in aqeuous solvents
"O=C(O)c1ccc(C(F)(F)F)cc1-c1ccc2c(c1)OC[C@H](Cc1ccccc1)[C@H]2O [monohydrate, (3S-trans)-2-[3,4-dihydro-4-hydroxy-3-(phenylmethyl)-2H-1-benzopyran-7-yl]-4-(trifluoromethyl)-benzoic acid]",time stable in solid form,[1],at least six weeks
same,bridging to polymorph A,[2]; hexanes alone,no bridging occurs
same,bridging to polymorph A,"[2]; solvents with some minimal solubility, e.g. ethyl acetate: hexanes 1:5",readily bridges to polymorph A
same,relative energy of the crystal form,[4],higher in energy than polymorph A
"O=C(O)c1ccc(C(F)(F)F)cc1-c1ccc2c(c1)OC[C@H](Cc1ccccc1)[C@H]2O [(3S-trans)-2-[3,4-dihydro-4-hydroxy-3-(phenylmethyl)-2H-1-benzopyran-7-yl]-4-(trifluoromethyl)-benzoic acid]",solubility thermodynamic at 4 days,[5],~4000 µg/mL
same,solubility in aqueous solvents relative to other forms,[3],greater solubility in aqeuous solvents
"O=C(O)c1ccc(C(F)(F)F)cc1-c1ccc2c(c1)OC[C@@H](Cc1ccccc1)[C@@H]2O [sodium salt, (3R-trans)-2-[3,4-dihydro-4-hydroxy-3-(phenylmethyl)-2H-1-benzopyran-7-yl]-4-(trifluoromethyl)-benzioc acid]",hygroscopicity of salt,[6],"hygroscopic, becoming an oil"
"O=C(O)c1ccc(C(F)(F)F)cc1-c1ccc2c(c1)OC[C@H](Cc1ccccc1)[C@H]2O [Polymorph A, (3S-trans)-2-[3,4-dihydro-4-hydroxy-3-(phenylmethyl)-2H-1-benzopyran-7-yl]-4-(trifluoromethyl)-benzoic acid]",hygroscopicity in words,"[7]; 87% RH, ambient temperature",substantially non-hygroscopic
same,weight gain (hygroscopicity),[7]; again at ambient temperature (second value stated),0.36%
same,weight gain (hygroscopicity),[7]; ambient temperature (first value stated),0.2%
same,relative energy of the crystal form,[4],lowest energy form
same,thermal stability relative to all other known forms of compound (I),[8],greater thermal stability
